Assay results as given in patent US20120245137A1 (Zalicus Pharmaceuticals Ltd., priority 2009, published 2012).
Where two headings read alike, the source gives them in different places.

Columns and labels:
Format in all cases: cell-based
Human Cav 2.2 channels = Human Cav 2.2 channels (Homo sapiens, UniProt Q00975); experiment: Fluorescent assay for CaV2.2 channels using potassium depolarization (VIPR/FLIPR); conditions: FLIPR data
In short: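 HEK293 cells stably expressing human Cav2.2 with α2δ and β subunits plus Kir2.3 were loaded with fluo-4 and incubated 30 min at 25 °C with compound in 4, 12, 25 or 30 mM potassium buffer. Channels were opened with 70 mM potassium (final) and calcium influx was read by fluorescence (Ex 480/Em 535 nm).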

T-type calcium channel [1] = target: T-type calcium channel (Homo sapiens, UniProt O43497); experiment: T-type channel blocking, FLIPR data (Table 6); conditions: CAv3.1
Description: (§1) Another method, high-throughput spectrophotometric assay, utilizes loading of the cell lines with a fluorescent dye sensitive to intracellular calcium concentration and subsequent examination of the effects of compounds on the ability of depolarization by potassium chloride or other means to alter intracellular calcium levels.

T-type calcium channel [2] = target: T-type calcium channel (Homo sapiens, UniProt O95180); experiment: T-type channel blocking, FLIPR data (Table 6); conditions: for CAv3.2 IC50 Ratio closed/inact.: CAv3.2, ratio closed/inact.
Description: as §1

CAv1.2 = CAv1.2 (Homo sapiens, UniProt Q13936); experiment: L-type (CAv1.2) channel blocking, FLIPR data (Table 6)
Chain of CAv1.2 (Q13936 whole entry): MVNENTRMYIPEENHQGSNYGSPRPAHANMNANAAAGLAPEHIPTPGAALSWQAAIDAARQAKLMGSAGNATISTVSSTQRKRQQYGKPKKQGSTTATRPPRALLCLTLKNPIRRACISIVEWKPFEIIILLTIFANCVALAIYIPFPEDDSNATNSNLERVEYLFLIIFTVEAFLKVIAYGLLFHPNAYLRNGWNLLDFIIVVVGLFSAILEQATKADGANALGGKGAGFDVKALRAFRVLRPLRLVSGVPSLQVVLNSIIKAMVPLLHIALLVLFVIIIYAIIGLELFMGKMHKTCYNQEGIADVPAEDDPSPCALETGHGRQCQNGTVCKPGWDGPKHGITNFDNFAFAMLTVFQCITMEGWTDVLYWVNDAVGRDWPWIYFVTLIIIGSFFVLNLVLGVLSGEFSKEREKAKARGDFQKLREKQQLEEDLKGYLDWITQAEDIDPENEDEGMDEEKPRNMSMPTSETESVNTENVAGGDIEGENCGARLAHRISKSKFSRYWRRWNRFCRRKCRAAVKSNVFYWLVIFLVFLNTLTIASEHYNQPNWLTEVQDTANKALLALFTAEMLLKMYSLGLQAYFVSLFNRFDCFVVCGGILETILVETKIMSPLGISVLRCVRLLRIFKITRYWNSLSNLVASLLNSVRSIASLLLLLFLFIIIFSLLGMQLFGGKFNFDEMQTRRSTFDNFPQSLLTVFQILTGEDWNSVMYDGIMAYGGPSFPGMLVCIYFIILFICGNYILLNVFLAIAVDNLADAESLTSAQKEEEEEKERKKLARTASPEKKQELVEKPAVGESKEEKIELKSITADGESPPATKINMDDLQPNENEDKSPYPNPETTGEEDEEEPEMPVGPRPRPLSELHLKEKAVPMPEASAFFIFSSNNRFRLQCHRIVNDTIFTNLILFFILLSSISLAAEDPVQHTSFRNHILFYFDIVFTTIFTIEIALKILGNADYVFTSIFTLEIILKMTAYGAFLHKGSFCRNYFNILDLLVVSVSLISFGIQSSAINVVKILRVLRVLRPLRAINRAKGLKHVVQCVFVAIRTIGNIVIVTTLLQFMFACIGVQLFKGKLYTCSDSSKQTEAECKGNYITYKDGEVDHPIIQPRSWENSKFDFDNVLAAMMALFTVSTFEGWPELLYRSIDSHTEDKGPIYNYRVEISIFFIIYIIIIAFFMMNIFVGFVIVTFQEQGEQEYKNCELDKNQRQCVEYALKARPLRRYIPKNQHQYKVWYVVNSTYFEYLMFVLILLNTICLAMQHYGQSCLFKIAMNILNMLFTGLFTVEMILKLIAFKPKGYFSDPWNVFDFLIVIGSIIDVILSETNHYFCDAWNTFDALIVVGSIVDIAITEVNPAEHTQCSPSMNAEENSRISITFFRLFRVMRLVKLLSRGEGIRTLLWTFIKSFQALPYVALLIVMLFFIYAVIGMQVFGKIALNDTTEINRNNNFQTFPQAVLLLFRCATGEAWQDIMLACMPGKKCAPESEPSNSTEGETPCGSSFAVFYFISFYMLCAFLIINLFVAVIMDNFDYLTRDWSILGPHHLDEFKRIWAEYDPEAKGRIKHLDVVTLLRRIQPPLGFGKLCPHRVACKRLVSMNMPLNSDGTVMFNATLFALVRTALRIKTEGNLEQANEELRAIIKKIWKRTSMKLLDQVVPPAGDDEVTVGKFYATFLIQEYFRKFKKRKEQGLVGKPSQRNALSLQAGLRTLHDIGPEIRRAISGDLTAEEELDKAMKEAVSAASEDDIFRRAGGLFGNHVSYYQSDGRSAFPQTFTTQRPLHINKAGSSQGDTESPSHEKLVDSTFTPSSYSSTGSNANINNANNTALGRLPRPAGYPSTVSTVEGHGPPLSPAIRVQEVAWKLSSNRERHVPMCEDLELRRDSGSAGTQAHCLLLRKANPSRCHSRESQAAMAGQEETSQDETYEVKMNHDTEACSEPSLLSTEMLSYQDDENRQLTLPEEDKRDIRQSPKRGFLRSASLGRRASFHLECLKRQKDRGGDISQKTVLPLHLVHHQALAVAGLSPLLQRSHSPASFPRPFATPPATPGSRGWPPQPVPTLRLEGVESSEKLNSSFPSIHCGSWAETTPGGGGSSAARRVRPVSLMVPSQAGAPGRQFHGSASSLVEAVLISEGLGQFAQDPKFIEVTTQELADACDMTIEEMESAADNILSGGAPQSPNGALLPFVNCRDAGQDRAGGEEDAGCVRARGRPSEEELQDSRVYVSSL
Chain of CAv1.2 (P54289 25-1103 partner): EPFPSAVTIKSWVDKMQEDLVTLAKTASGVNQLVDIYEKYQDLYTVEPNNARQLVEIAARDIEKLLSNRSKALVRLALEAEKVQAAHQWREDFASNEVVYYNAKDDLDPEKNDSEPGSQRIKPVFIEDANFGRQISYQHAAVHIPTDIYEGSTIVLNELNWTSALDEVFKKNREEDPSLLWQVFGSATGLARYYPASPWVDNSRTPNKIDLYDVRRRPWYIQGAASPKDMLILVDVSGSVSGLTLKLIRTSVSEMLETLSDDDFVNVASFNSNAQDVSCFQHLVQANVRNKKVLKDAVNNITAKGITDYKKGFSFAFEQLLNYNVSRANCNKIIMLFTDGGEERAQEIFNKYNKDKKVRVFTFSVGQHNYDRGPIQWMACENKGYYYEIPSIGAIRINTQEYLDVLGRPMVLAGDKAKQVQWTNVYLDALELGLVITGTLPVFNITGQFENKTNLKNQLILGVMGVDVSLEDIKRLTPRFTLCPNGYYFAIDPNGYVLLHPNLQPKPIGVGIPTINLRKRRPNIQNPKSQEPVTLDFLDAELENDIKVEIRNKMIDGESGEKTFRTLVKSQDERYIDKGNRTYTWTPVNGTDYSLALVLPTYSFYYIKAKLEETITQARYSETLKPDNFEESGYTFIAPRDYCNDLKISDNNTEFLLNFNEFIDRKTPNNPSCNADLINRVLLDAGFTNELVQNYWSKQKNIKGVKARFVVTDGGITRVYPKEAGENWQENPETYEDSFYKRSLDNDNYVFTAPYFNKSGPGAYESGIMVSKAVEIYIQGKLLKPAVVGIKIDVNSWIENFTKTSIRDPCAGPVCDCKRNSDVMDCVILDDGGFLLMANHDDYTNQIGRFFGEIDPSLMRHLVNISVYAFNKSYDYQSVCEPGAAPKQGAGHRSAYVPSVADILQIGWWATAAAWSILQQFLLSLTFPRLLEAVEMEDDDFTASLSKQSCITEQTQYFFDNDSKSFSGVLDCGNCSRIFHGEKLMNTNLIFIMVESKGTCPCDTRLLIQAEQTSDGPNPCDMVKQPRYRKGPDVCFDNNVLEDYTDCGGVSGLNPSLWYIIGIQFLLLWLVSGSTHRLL
Chain of CAv1.2 (Q08289 whole entry partner): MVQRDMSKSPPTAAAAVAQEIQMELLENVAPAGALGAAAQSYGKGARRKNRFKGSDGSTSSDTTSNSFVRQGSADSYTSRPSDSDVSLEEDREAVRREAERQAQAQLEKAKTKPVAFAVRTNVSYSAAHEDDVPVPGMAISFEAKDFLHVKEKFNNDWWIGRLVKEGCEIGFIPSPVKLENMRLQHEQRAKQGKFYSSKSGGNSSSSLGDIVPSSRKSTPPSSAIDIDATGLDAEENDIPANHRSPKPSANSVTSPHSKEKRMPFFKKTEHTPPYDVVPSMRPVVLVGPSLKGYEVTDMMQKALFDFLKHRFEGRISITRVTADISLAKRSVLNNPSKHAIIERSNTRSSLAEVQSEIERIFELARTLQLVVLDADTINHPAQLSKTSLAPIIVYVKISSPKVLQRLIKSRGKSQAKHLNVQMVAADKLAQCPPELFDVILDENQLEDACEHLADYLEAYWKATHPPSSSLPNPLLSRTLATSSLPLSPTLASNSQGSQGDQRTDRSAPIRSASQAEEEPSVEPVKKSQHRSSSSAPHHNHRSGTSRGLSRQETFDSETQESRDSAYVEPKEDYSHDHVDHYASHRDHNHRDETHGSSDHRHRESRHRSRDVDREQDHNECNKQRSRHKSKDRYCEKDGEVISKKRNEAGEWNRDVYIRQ

[3] = closed state, read-out: CAv2.2 IC50 Closed
[4] = inactivated state, read-out: CAv2.2 IC50 Inact.
[5] = CAv3.2, closed state, read-out: CAv3.2 IC50 Closed
[6] = CAv3.2, inactivated state, read-out: CAv3.2 IC50 Inact.
[7] = closed state, read-out: CAv1.2 IC50 Closed
[8] = inactivated state, read-out: CAv1.2 IC50 Inact.

SMILES	IC50 (Human Cav 2.2 channels; [3])	IC50 (Human Cav 2.2 channels; [4])	CAv2.2 IC50 Ratio closed/inact. (Human Cav 2.2 channels)	IC50 (T-type calcium channel [1])	IC50 (T-type calcium channel [2]; [5])	IC50 (T-type calcium channel [2]; [6])	CAv3.2 IC50 Ratio closed/inact. (T-type calcium channel [2])	IC50 (CAv1.2; [7])	IC50 (CAv1.2; [8])	CAv1.2 IC50 Ratio closed/inact. (CAv1.2)
CC(C)([C@H]1C[C@@H](C(=O)Nc2ccc(C(F)(F)F)cc2)C1)S(=O)(=O)c1cccc(C(F)(F)F)c1 [Compound 756]	3.9 µM	0.39 µM	10	1.59 µM	3.52 µM	1.2 µM	2.9	4.19 µM	1.37 µM	3.1
CC(C)([C@H]1C[C@H](C(=O)NCc2ccc(C(F)(F)F)nc2)C1)S(=O)(=O)c1cccc(C(F)(F)F)c1 [Compound 767]	5.37 µM	0.57 µM	9.4	≥ 10 µM	≥ 10 µM	9.57 µM	1	≥ 10 µM	5.14 µM	1.9
O=C(NC[C@H]1C[C@H](S(=O)(=O)c2cccc(Cl)c2)C1)c1ccc(OCC(F)(F)F)nc1 [Compound 775]	10 µM	5.78 µM	1.7	≥ 10 µM	8.66 µM	1.62 µM	5.3	≥ 10 µM	≥ 10 µM	–
CC(C)(C[C@H]1C[C@@H](NC(=O)[C@@H]2CCCC[C@@H]2N)C1)S(=O)(=O)c1cccc(C(F)(F)F)c1 [Compound 740]	3.91 µM	0.85 µM	4.6	≥ 10 µM	≥ 10 µM	10 µM	1	≥ 10 µM	≥ 10 µM	–
Cc1nc(C(F)(F)F)ccc1NC(=O)[C@H]1C[C@H](C(C)(C)S(=O)(=O)c2cccc(C(F)(F)F)c2)C1 [Compound 768]	4.17 µM	0.39 µM	10.7	4.57 µM	6.82 µM	3.56 µM	1.9	≥ 10 µM	4.42 µM	2.3
CC(C)([C@H]1C[C@H](CNc2ccc(F)c(Cl)c2)C1)S(=O)(=O)c1cccc(C(F)(F)F)c1 [Compound 750]	2.33 µM	0.17 µM	13.7	3.37 µM	≥ 10 µM	0.74 µM	13.5	3.42 µM	0.99 µM	3.5
CC(C)([C@H]1C[C@@H](C(=O)Nc2cc(C(F)(F)F)n[nH]2)C1)S(=O)(=O)c1cccc(C(F)(F)F)c1 [Compound 757]	5.79 µM	0.55 µM	10.5	2.22 µM	6.06 µM	2.29 µM	2.6	≥ 10 µM	5.39 µM	1.9
CC(C)(C[C@H]1C[C@@H](NC(=O)[C@@H]2CCCC[C@H]2N)C1)S(=O)(=O)c1cccc(C(F)(F)F)c1 [Compound 741]	3.86 µM	1.31 µM	2.9	≥ 10 µM	≥ 10 µM	10 µM	1	≥ 10 µM	≥ 10 µM	–
Cn1nc(C(F)(F)F)cc1NC(=O)[C@H]1C[C@H](C(C)(C)S(=O)(=O)c2cccc(C(F)(F)F)c2)C1 [Compound 769]	4.98 µM	0.34 µM	14.6	4.72 µM	5.36 µM	3.78 µM	1.4	8.49 µM	1.47 µM	5.8
CC(C)([C@H]1C[C@H](CNc2cc(C(F)(F)F)n[nH]2)C1)S(=O)(=O)c1cccc(C(F)(F)F)c1 [Compound 752]	3.7 µM	0.28 µM	13.2	4.91 µM	5.86 µM	1.88 µM	3.1	8.6 µM	2.81 µM	3.1
CC(C)([C@H]1C[C@@H](CNc2ccc(F)c(Cl)c2)C1)S(=O)(=O)c1cccc(C(F)(F)F)c1 [Compound 753]	3.8 µM	0.33 µM	11.5	4.45 µM	≥ 10 µM	1.63 µM	6.1	7.42 µM	1.51 µM	4.9
CC(C)([C@H]1C[C@H](C(=O)Nc2ccc(C(F)(F)F)cn2)C1)S(=O)(=O)c1cccc(C(F)(F)F)c1 [Compound 766]	1.69 µM	0.13 µM	13	2.65 µM	4.2 µM	2.38 µM	1.8	3.72 µM	2.07 µM	1.8
CC(C)([C@H]1C[C@@H](C(=O)Nc2ccc(C(F)(F)F)cn2)C1)S(=O)(=O)c1cccc(C(F)(F)F)c1 [Compound 758]	2.54 µM	0.39 µM	6.5	2.13 µM	4.06 µM	1.97 µM	2.1	3.56 µM	1.88 µM	1.9
CC(C)([C@H]1C[C@@H](C(=O)Nc2ccc(C(F)(F)F)nc2)C1)S(=O)(=O)c1cccc(C(F)(F)F)c1 [Compound 759]	3.67 µM	0.48 µM	7.6	2.27 µM	3.55 µM	2.07 µM	1.7	5.1 µM	2.18 µM	2.3
CC(C)([C@H]1C[C@H](C(=O)Nc2ccc(Cl)cn2)C1)S(=O)(=O)c1cccc(C(F)(F)F)c1 [Compound 761]	1.6 µM	0.15 µM	10.7	4.19 µM	≥ 10 µM	1.71 µM	5.8	8.54 µM	4.61 µM	1.9
CC(C)([C@H]1C[C@H](CNc2ccc(Cl)c(F)c2)C1)S(=O)(=O)c1cccc(C(F)(F)F)c1 [Compound 751]	3.93 µM	0.3 µM	13.1	4.53 µM	≥ 10 µM	1.48 µM	6.8	4.72 µM	1.35 µM	3.5
CC(C)(C[C@H]1C[C@@H](NC(=O)[C@H]2CCCC[C@H]2N)C1)S(=O)(=O)c1cccc(C(F)(F)F)c1 [Compound 744]	4.11 µM	0.94 µM	4.4	≥ 10 µM	≥ 10 µM	–	–	≥ 10 µM	≥ 10 µM	–
